Measured values from patent publication US8455530B2, “Crystalline form of an alkoxyimidazol-1-ylmethyl biphenyl carboxylic acid” (Theravance, Inc., priority 2008, dated 2013).
“Also recorded” adds a separate entry of the source. Counter-ions that a name gives are not always drawn. One block for each molecule: values may come before it.

Experiments:
[1] = Solid state stability assessment (storage, HPLC purity); type: physicochemical; details: for change in chemical purity after 28 days of storage at 40° C.: HPLC
Procedure: Samples of the crystalline freebase prepared as in Example 7, about 100 mg each, were stored in multiple vials at 5° C. (closed container), 25° C. (closed container), and at 40° C. (closed container). At specific intervals, the entire contents of a representative vial was analyzed by the following HPLC method:
Column: Agilent Zorbox SB-C18, 4.6×250 mm, 5 μm (Part No. 880975-902). Mobile Phase A: 80% H2O, 20% MeCN, 0.01% TFA. Mobile Phase B: 80% MeCN, 20% H2O, 0.01% TFA. Flow rate: 1 mL/min. Injection Volume: 20 μL. Detector: 250 nm.
The purity of the samples was determined by HPLC area percentage (% AUC).

[2] = as above; type: physicochemical; details: for purity at time 0: HPLC area percentage
[3] = Micronization with a jet mill, particle size distribution; type: physicochemical
Text: A sample of the crystalline freebase prepared as in Example 7 was micronized with a jet mill to give a free-flowing white powder. No issues were encountered during the micronization process.

[4] = Dynamic moisture sorption (DMS) assessment; type: physicochemical
Procedure: A dynamic moisture sorption (DMS) assessment (also known as a moisture sorption-desorption profile) was performed for a sample of the crystalline form of Example 2 using a VTI atmospheric microbalance, SGA-100 system (VTI Corp., Hialeah, Fla. 33016). A sample size of approximately 4.27 mg was used and the humidity was set at the ambient value at the start of the analysis. The DMS analysis consisted of a scan rate of 5% RH/step over the full humidity range of 2% relative humidity (RH) to 90% RH. The DMS run was performed isothermally at 25° C.

[5] = molecular target: T1, human AT1 receptor (Homo sapiens, UniProt P30556); assay: AT1 radioligand binding assay ([Eu]AngII displacement); details: [Eu]AngII at 2 nM, membranes of CHO-K1 cells expressing human AT1; read-out: pKi at the AT1 receptor (converted)
T1 construct: expressed in transfected cells; membrane preparation
T1 sequence (P30556 1-359): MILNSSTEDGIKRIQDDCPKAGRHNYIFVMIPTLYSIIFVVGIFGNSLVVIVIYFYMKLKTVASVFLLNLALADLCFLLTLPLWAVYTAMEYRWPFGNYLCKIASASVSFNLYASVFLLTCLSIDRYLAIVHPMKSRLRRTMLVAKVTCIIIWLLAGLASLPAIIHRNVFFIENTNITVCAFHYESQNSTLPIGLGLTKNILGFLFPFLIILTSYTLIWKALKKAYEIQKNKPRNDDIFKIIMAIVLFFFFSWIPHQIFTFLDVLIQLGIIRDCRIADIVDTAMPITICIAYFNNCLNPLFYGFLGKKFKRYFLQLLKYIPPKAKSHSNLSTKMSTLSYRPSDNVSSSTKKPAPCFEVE
Procedure: These in vitro assays were used to assess the ability of test compounds to bind to the AT1 and the AT2 receptors.
Membrane Preparation From Cells Expressing Human AT1 or AT2 Receptors
Chinese hamster ovary (CHO-K1) derived cell lines stably expressing the cloned human AT1 or AT2 receptors, respectively, were grown in HAM's-F12 medium supplemented with 10% fetal bovine serum, 10 μg/ml penicillin/streptomycin, and 500 μg/ml geneticin in a 5% CO2 humidified incubator at 37° C. AT2 receptor expressing cells were grown in the additional presence of 100 nM PD123,319 (AT2 antagonist). When cultures reached 80-95% confluence, the cells were washed thoroughly in PBS and lifted with 5 mM EDTA. Cells were pelleted by centrifugation and snap frozen in MeOH-dry ice and stored at −80° C. until further use.
For membrane preparation, cell pellets were resuspended in lysis buffer (25 mM Tris/HCl pH 7.5 at 4° C., 1 mM EDTA, and one tablet of Complete Protease Inhibitor Cocktail Tablets with 2 mM EDTA per 50 mL buffer (Roche cat.#1697498, Roche Molecular Biochemicals, Indianapolis, Ind.)) and homogenized using a tight-fitting Dounce glass homogenizer (10 strokes) on ice. The homogenate was centrifuged at 1000×g, the supernatant was collected and centrifuged at 20,000×g. […] Protein concentration of the membrane suspension was determined by the method described in Bradford (1976) Anal Biochem. 72:248-54. […]

[6] = Thermal stability (heating at 60° C.); type: physicochemical
Procedure: A sample of the crystalline form prepared as in Example 6 was heated at 60° C. for 5 days. The sample lost only 2% of its purity, thus the crystalline compound of the invention has excellent thermal stability.

[7] = Differential scanning calorimetry (thermal stability); type: physicochemical; details: 10° C./min from 22° C. to 250° C.; listed as crystalline compound of the invention
Procedure: Differential scanning calorimetry (DSC) was performed using a TA Instruments Model Q-100 module with a Thermal Analyst controller. Data were collected and analyzed using TA Instruments Thermal Solutions software. A 1.64 mg sample of the crystalline form of Example 2 was accurately weighed into a covered aluminum pan. After a 5 minute isothermal equilibration period at 22° C., the sample was heated using a linear heating ramp of 10° C./min from 22° C. to 250° C.

[8] = closed container, listed as crystalline freebase
[9] = all conditions: 5° C., 25° C. and 40° C., closed container
[10] = closed container, listed as amorphous freebase

Compound: CCOc1nc(CC)c(CNC(=O)[C@@H](S)CC(C)C)n1Cc1ccc(-c2ccccc2C(=O)O)cc1F [amorphous TFA salt, 4′-{2-ethoxy-4-ethyl-5-[((S)-2-mercapto-4-methylpentanoyl-amino)methyl]imidazol-1-ylmethyl}-3′-fluorobiphenyl-2-carboxylic acid]
purity after 14 days at 40° C. ([1]; closed container): 62.2 % AUC | change in chemical purity after 28 days of storage at 40° C. ([1]; 28 days at 40° C.): decline in purity | purity after 28 days at 40° C. ([1]; 28 days at 40° C., closed container): 47.1 % AUC | purity at time 0 ([1]; HPLC area percentage, time 0): 97.7 % AUC | purity after 7 days at 40° C. ([2]; closed container): 73.5 % AUC

Compound: CCOc1nc(CC)c(CNC(=O)[C@@H](S)CC(C)C)n1Cc1ccc(-c2ccccc2C(=O)O)cc1F [Example 7, 4′-{2-Ethoxy-4-ethyl-5-[((S)-2-mercapto-4-methylpentanoylamino)methyl]imidazol-1-ylmethyl}-3′-fluorobiphenyl-2-carboxylic Acid]
purity after 14 days at 40° C. [1, 8]: 98.3 % AUC | change in chemical purity after 28 days of storage at 40° C. ([1]; 28 days at 40° C., listed as crystalline freebase): no detectable change in chemical purity; also recorded: minimal chemical degradation | change in chemical purity after 28 days of storage [1, 9]: no detectable change in chemical purity | purity after 7 days at 40° C. [2, 8]: 98.4 % AUC | purity after 28 days at 40° C. ([2]; 28 days at 40° C., closed container, listed as crystalline freebase): 98.4 % AUC | purity at time 0 ([2]; listed as crystalline freebase): 98.5 % AUC | change in the appearance of the material after 28 days of storage [2, 9]: no observable change in the appearance | particle size D (v, 0.1) ([3]; Post-Micronization): 0.79 μm | particle size D (v, 0.5) ([3]; Post-Micronization): 2.59 μm | particle size D (v, 0.9) ([3]; Post-Micronization): 7.07 μm | particle size D (v, 0.1) ([3]; Pre-Micronization): 1.73 μm | particle size D (v, 0.5) ([3]; Pre-Micronization): 11.32 μm | particle size D (v, 0.9) ([3]; Pre-Micronization): 50.73 μm | weight gain in the humidity range of 40-75% RH ([4]; micronized material): 0.7%

Compound: CCOc1nc(CC)c(CNC(=O)[C@@H](S)CC(C)C)n1Cc1ccc(-c2ccccc2C(=O)O)cc1F [Example 1, 4′-{2-Ethoxy-4-ethyl-5-[((S)-2-mercapto-4-methylpentanoylamino)methyl]imidazol-1-ylmethyl}-3′-fluorobiphenyl-2-carboxylic Acid]
Ki [5]: < 0.1 µM | purity after 14 days at 40° C. [1, 10]: 82.4 % AUC | change in chemical purity after 28 days of storage at 40° C. ([1]; 28 days at 40° C., listed as amorphous freebase): decline in purity | purity after 7 days at 40° C. [2, 10]: 86.8 % AUC | purity at time 0 ([2]; listed as amorphous freebase): 97.5 % AUC | loss of purity ([6]; heated at 60° C. for 1 day): about 50%

Further lines, with some results ahead:

weight gain in the humidity range of 40-75% RH ([4]; unmicronized): less than 1% | weight gain when exposed to up to 75% relative humidity ([4]; up to 75% RH, 25° C.): less than 1%
Compound: CCOc1nc(CC)c(CNC(=O)[C@@H](S)CC(C)C)n1Cc1ccc(-c2ccccc2C(=O)O)cc1F [Example 2, 4′-{2-Ethoxy-4-ethyl-5-[((S)-2-mercapto-4-methylpentanoylamino)methyl]imidazol-1-ylmethyl}-3′-fluorobiphenyl-2-carboxylic Acid]
thermal decomposition (DSC thermograph) [7]: no significant thermal decomposition below about 150 °C

loss of purity ([6]; heated at 60° C. for 5 days): 2%
Compound: CCOc1nc(CC)c(CNC(=O)[C@@H](S)CC(C)C)n1Cc1ccc(-c2ccccc2C(=O)O)cc1F [Example 6, 4′-{2-Ethoxy-4-ethyl-5-[((S)-2-mercapto-4-methylpentanoylamino)methyl]imidazol-1-ylmethyl}-3′-fluorobiphenyl-2-carboxylic Acid]
